From US20180244660A1, “CYCLOPROPYLDERIVATIVES AND THEIR USE AS KINASE INHIBITORS” (Karyopharm Therapeutics Inc., priority 2015, published 2018)
pIC50: −log10 of the molar value. Where two headings read alike, the source gives them in different places.

Assays:
[1] = system: 3T3 cells; assay: MTT cell proliferation assay, 3T3 cells; type: cell-based, mouse; conditions: 3T3 fibroblast cells, incubation approximately 64-72 hours
Procedure: (§1) The MTT cell proliferation assay was used to study the cytotoxic properties of the compounds. The assay was performed according to the method described by Roche Molecular Biochemicals, with minor modifications. The assay is based on the cleavage of the tetrazolium salt, MTT, in the presence of an electron-coupling reagent. The water-insoluble formazan salt produced must be solubilized in an additional step. Cells grown in a 96-well tissue culture plate were incubated with the MTT solution for approximately 4 hours. After this incubation period, a water-insoluble formazan dye formed. After solubilization, the formazan dye was quantitated using a scanning multi-well spectrophotometer (ELISA reader). […] The cells were seeded at 5,000-10,000 cells in each well of 96-well plate in 100 μL of fresh culture medium and were allowed to attach overnight. The stock solutions of the compounds were diluted in 100 μL cell culture medium to obtain eight concentrations of each test compound, ranging from 1 nM to 30 μM. […] All optical densities were measured at 490 nm using a Vmax Kinetic Microplate Reader (Molecular Devices). In most cases, the assay was performed in duplicate and the results were presented as a mean percent inhibition to the negative control+SE. The following formula was used to calculate the percent of inhibition: Inhibition (%)=(1−(ODo/OD))×100.
(§2) The compounds were tested against MS751, Z138 and 3T3 cells. The MS751 cell line is derived from a metastasis to lymph node of human cervix from a patient diagnosed with squameous cell carcinoma of the cervix. The Z138 cell line is a mature B-cell acute lymphoblastic leukemia cell line derived from a patient with chronic lumphocytic leukemia. 3T3 cells are standard fibroblast cells; they were originally isolated from Swiss mouse embryo tissue.

[2] = system: MS751 cells; assay: MTT cell proliferation assay, MS751 cells; type: cell-based, human; conditions: incubation approximately 64-72 hours, read-out: MTT Assay IC50 MS 751
Procedure: as §1, §2

[3] = system: Z138 cells; assay: MTT cell proliferation assay, Z138 cells; type: cell-based, human
Procedure: as §1, §2

[4] = Homo sapiens, Z-138, incubation approximately 64-72 hours

Compound | pIC50 ([1]; Mus musculus, NIH3T3) | pIC50 ([2]; Homo sapiens) | pIC50 [3, 4] | pIC50 [1] | pIC50 [2] | pIC50 ([3]; incubation approximately 64-72 hours, read-out: MTT Assay IC50 Z-138)
Nc1ccc([C@H]2C[C@@H]2C(=O)NCc2cc3cc(-c4ccc(C(=O)N5CCC(F)(F)CC5)cc4)cc(-c4ccc(F)cc4)c3[nH]2)cn1 [Compound K022, (1S,2S)-2-(6-aminopyridin-3-yl)-N—((5-(4-(4,4-difluoropiperidine-1-carbonyl)phenyl)-7-(4-fluorophenyl)-1H-indol-2-yl)methyl)cyclopropanecarboxamide] | < 5.00 | 5.30 to 6.00 | 5.00 to 5.30 | – | – | –
Nc1ccc(C2CC2C(=O)NCc2ccc(-c3ccc(-c4ccc(C(=O)N5CCC(F)(F)CC5)cn4)cc3C(F)(F)F)o2)cn1 (centres unmarked) [Compound K009, 2-(6-aminopyridin-3-yl)-N—((5-(4-(5-(4,4-difluoropiperidine-1-carbonyl)pyridin-2-yl)-2-(trifluoromethyl)phenyl)furan-2-yl)methyl)cyclopropanecarboxamide] | 5.00 to 5.30 | > 6.00 | > 6.00 | – | – | –
Nc1ccc([C@H]2C[C@@H]2C(=O)NCc2cc3cc(-c4ccc(C(=O)N5CC(F)C5)cc4)cc(-c4ccc(F)cc4)c3o2)cn1 [Compound K020, (1S,2S)-2-(6-aminopyridin-3-yl)-N—((5-(4-(3-fluoroazetidine-1-carbonyl)phenyl)-7-(4-fluorophenyl)benzofuran-2-yl)methyl)cyclopropanecarboxamide] | 5.30 to 6.00 | > 6.00 | > 6.00 | – | – | –
Nc1ccc([C@H]2C[C@@H]2C(=O)NCc2cc3cc(-c4ccc(C(=O)N5CCC(F)(F)C5)cc4)cc(-c4ccc(F)cc4)c3o2)cn1 [Compound K017, (1S,2S)-2-(6-aminopyridin-3-yl)-N—((5-(4-(3,3-difluoropyrrolidine-1-carbonyl)phenyl)-7-(4-fluorophenyl)benzofuran-2-yl)methyl)cyclopropanecarboxamide] | 5.30 to 6.00 | > 6.00 | > 6.00 | – | – | –
Nc1ccc([C@H]2C[C@@H]2C(=O)NCc2cc3cc(-c4ccc(C(=O)N5CC(F)C5)cc4F)cc(-c4ccc(F)cc4)c3o2)cn1 [Compound K024, (1S,2S)-2-(6-aminopyridin-3-yl)-N—((5-(2-fluoro-4-(3-fluoroazetidine-1-carbonyl)phenyl)-7-(4-fluorophenyl)benzofuran-2-yl)methyl)cyclopropanecarboxamide] | > 6.00 | > 6.00 | > 6.00 | – | – | –
Nc1ccc([C@H]2C[C@@H]2C(=O)NCc2cc3cc(-c4ccc(C(=O)N5CC(Cl)C5)cc4)cc(-c4ccc(F)cc4)c3o2)cn1 [Compound K016, (1S,2S)-2-(6-aminopyridin-3-yl)-N—((5-(4-(3-chloroazetidine-1-carbonyl)phenyl)-7-(4-fluorophenyl)benzofuran-2-yl)methyl)cyclopropanecarboxamide] | 5.30 to 6.00 | > 6.00 | > 6.00 | – | – | –
Nc1ccc([C@H]2C[C@@H]2C(=O)NCc2cc3cc(-c4ccc(C(=O)N5CCC(F)(F)CC5)cc4)cc(-c4ccc(F)cc4F)c3o2)cn1 [Compound K010, (1S,2S)-2-(6-aminopyridin-3-yl)-N—((7-(2,4-difluorophenyl)-5-(4-(4,4-difluoropiperidine-1-carbonyl)phenyl)benzofuran-2-yl)methyl)cyclopropanecarboxamide] | 5.30 to 6.00 | > 6.00 | > 6.00 | – | – | –
Nc1ccc(C2CC2C(=O)NCCOc2ccc(-c3ccc(C(=O)N4CCC(F)(F)CC4)cc3)cc2-c2ccc(F)cc2F)cn1 (centres unmarked) [Compound K003, 2-(6-aminopyridin-3-yl)-N—(2-(3-(2,4-difluorophenyl)-4′-(4,4-difluoropiperidine-1-carbonyl)biphenyl-4-yloxy)ethyl)cyclopropanecarboxamide] | 5.00 to 5.30 | > 6.00 | > 6.00 | – | – | –
Nc1ccc([C@H]2C[C@@H]2C(=O)NCCCOc2cc(-c3ccc(C(=O)N4CCC(F)(F)CC4)cc3)cc(C(F)(F)F)c2)cn1 [Compound K005, (1S,2S)-2-(6-aminopyridin-3-yl)-N—(3-(4′-(4,4-difluoropiperidine-1-carbonyl)-5-(trifluoromethyl)biphenyl-3-yloxy)propyl)cyclopropanecarboxamide] | > 6.00 | > 6.00 | > 6.00 | – | – | –
Nc1ccc([C@H]2C[C@@H]2C(=O)NCCc2cc3cc(-c4ccc(C(=O)N5CCC(F)(F)CC5)cc4)cc(-c4ccc(F)cc4)c3o2)cn1 [Compound K019, (1S,2S)-2-(6-aminopyridin-3-yl)-N—(2-(5-(4-(4,4-difluoropiperidine-1-carbonyl)phenyl)-7-(4-fluorophenyl)benzofuran-2-yl)ethyl)cyclopropanecarboxamide] | 5.30 to 6.00 | > 6.00 | > 6.00 | – | – | –
Nc1ccc([C@H]2C[C@@H]2C(=O)NCc2cc3cc(-c4ccc(C(=O)N5CCNCC5)cc4)cc(-c4ccc(F)cc4)c3o2)cn1 (stereo in doubt) [Compound K027, (1S,2S)-2-(6-aminopyridin-3-yl)-N—((7-(4-fluorophenyl)-5-(4-(piperazine-1-carbonyl)phenyl)benzofuran-2-yl)methyl)cyclopropanecarboxamide] | < 5.00 | – | > 6.00 | – | – | –
(1S,2S)-2-(6-aminopyridin-3-yl)-N—((7-chloro-5-(4-(3,3-difluoroazetidine-1-carbonyl)phenyl)-2,3-dihydrobenzofuran-2-yl)methyl)cyclopropanecarboxamide [Compound K028] | – | – | – | < 5.00 | > 6.00 | > 6.00
Nc1ccc([C@H]2C[C@@H]2C(=O)NCc2cc3cc(-c4ccc(C(=O)N5CCC(F)(F)CC5)cn4)cc(-c4ccc(F)cc4)c3o2)cn1 [Compound K012, (1S,2S)-2-(6-aminopyridin-3-yl)-N—((5-(5-(4,4-difluoropiperidine-1-carbonyl)pyridin-2-yl)-7-(4-fluorophenyl)benzofuran-2-yl)methyl)cyclopropanecarboxamide] | 5.30 to 6.00 | > 6.00 | > 6.00 | – | – | –
Nc1ccc([C@H]2C[C@@H]2C(=O)NCc2cc3cc(-c4ccc(C(=O)N5CCC(F)(F)CC5)cc4)cc(-c4ccc(F)cc4)c3o2)cn1 [Compound K011, (1S,2S)-2-(6-aminopyridin-3-yl)-N—((5-(4-(4,4-difluoropiperidine-1-carbonyl)phenyl)-7-(4-fluorophenyl)benzofuran-2-yl)methyl)cyclopropanecarboxamide] | < 5.00 | > 6.00 | > 6.00 | – | – | –
Nc1ccc([C@@H]2C[C@H]2C(=O)NCc2cc3cc(-c4ccc(C(=O)N5CCC(F)(F)CC5)cc4)cc(C(F)(F)F)c3o2)cn1 [Compound K008, (1R,2R)-2-(6-Aminopyridin-3-yl)-N—((5-(4-(4,4-difluoropiperidine-1-carbonyl)phenyl)-7-(trifluoromethyl)benzofuran-2-yl)methyl)cyclopropanecarboxamide] | < 5.00 | < 5.00 | 5.30 to 6.00 | – | – | –
Nc1ccc(C2CC2C(=O)NCc2cc3cc(-c4ccc(C(=O)N5CCC(F)(F)CC5)cc4F)cc(-c4ccc(F)cc4)c3o2)cn1 (centres unmarked) [Compound K004, 2-(6-aminopyridin-3-yl)-N—((5-(4-(4,4-difluoropiperidine-1-carbonyl)-2-fluorophenyl)-7-(4-fluorophenyl)benzofuran-2-yl)methyl)cyclopropanecarboxamide] | < 5.00 | > 6.00 | > 6.00 | – | – | –
Nc1ccc([C@@H]2C[C@H]2C(=O)NCCCOc2cc(-c3ccc(C(=O)N4CCC(F)(F)CC4)cc3)cc(C(F)(F)F)c2)cn1 [Compound K006, (1R,2R)-2-(6-aminopyridin-3-yl)-N—(3-(4′-(4,4-difluoropiperidine-1-carbonyl)-5-(trifluoromethyl)biphenyl-3-yloxy)propyl)cyclopropanecarboxamide] | 5.30 to 6.00 | > 6.00 | > 6.00 | – | – | –
Nc1ccc([C@H]2C[C@@H]2C(=O)NCc2cc3cc(-c4ccc(C(=O)N5CC(F)(F)C5)cc4)cc(-c4ccc(F)cc4)c3o2)cn1 [Compound K018, (1S,2S)-2-(6-aminopyridin-3-yl)-N—((5-(4-(3,3-difluoroazetidine-1-carbonyl)phenyl)-7-(4-fluorophenyl)benzofuran-2-yl)methyl)cyclopropanecarboxamide] | 5.30 to 6.00 | > 6.00 | > 6.00 | – | – | –
Nc1ccc([C@H]2C[C@@H]2C(=O)NCc2nc3cc(-c4ccc(C(=O)N5CCC(F)(F)CC5)cc4)cc(-c4ccc(F)cc4)c3o2)cn1 [Compound K021, (1S,2S)-2-(6-aminopyridin-3-yl)-N—((5-(4-(4,4-difluoropiperidine-1-carbonyl)phenyl)-7-(4-fluorophenyl)benzo[d]oxazol-2-yl)methyl)cyclopropanecarboxamide] | < 5.00 | < 5.00 | < 5.00 | – | – | –
